Source: patent publication US20140274927A1, “TNF-Related Biomarkers For Assessing Cancer Cell Response To Treatment With Taxane And/Or Anthracycline Drugs” (priority 2013, published 2014)
Read-outs that look alike come from different tables or passages of the source.

How the values were obtained:
monocyte TNF levels = settings: gastric cancer patients, chemotherapy; cited from earlier work
[1] = tested on: A2780 ovarian tumour cells; settings: cited from earlier work
A2780 cells = assay: sTNFα in cell culture medium by ELISA; format: cell-based, human
Description: (§1) Concentrated proteins from the medium of two million MCF-7CC, MCF-7TXT or A2780 cells (grown in culture in the absence or presence of various concentrations of paclitaxel or docetaxel) were assessed for levels of sTNFα or sTNFR1 using ELISA kits from R&D Systems™, following the manufacturer's instructions.

MCF-7CC cells [2] = assay: sTNFα in cell culture medium by ELISA; format: cell-based, human
Description: as §1

C2C12 myotubes = settings: cited from earlier work
MCF-7CC cells [3] = assay: Clonogenic assay
Description: (§2) Cellular sensitivity to TNFα or docetaxel was assessed using a clonogenic assay as described previously. Docetaxel resistance factors for the cell lines were determined by dividing the IC50 for docetaxel in the taxane-resistant cell lines by the IC50 for MCF-7CC cells. […] (SN-50, 7 μg/ml). A control peptide at the same concentration (SN-50M) was used in the latter experiments to assess the specificity of NF-κB inhibition.

MCF-7TAX-1 cells [4] = assay: Clonogenic assay; format: cell-based, human
Description: (§3) MCF-7 cells from the American Tissue Culture Collection (catalog number HTB-22) were cultured or selected for survival in increasing doses of docetaxel or paclitaxel as previously described [17;18]. The initial concentrations of docetaxel and paclitaxel used to begin selection (dose 1) were 0.51 and 0.56 nM, respectively. Cells selected to docetaxel concentrations of 1.11 nM (dose 8, MCF-7TXT8), 3.33 nM (dose 9, MCF-7TXT9), 5.00 nM (dose 10, MCF-7TXT10), 15 nM (dose 11, MCF-7TXT11), and 45 nM (dose 12, MCF-7TXT12) were used in this study. Numbers in subscripts of cell line names refer to the maximum docetaxel dose level to which the cells were exposed. The paclitaxel resistant cell line used in this study was selected in an identical manner to a final concentration of 6.64 nM paclitaxel (MCF-7TAX-1 cells; hyphenated number indicates the first cell line selection, not drug dose). […] A2780 ovarian carcinoma cells from the European Collection of Cell Cultures were also selected for resistance to docetaxel in an identical manner (A2780DXL cells), including the creation of “co-cultured control” A2780CC cells.
as §2

MCF-7TXT cells [5] = assay: Clonogenic assay
Description: as §3, §2

[6] = tested on: serum levels of proinflammatory cytokines, including TNFα; settings: castration-resistant prostate cancer patients, two days after administration; cited from earlier work
MCF-7TAX-1 cells [7] = assay: sTNFα in cell culture medium by ELISA; format: cell-based, human; settings: presence or absence of docetaxel
murine macrophages = settings: cited from earlier work
A2780DXL cells = assay: Clonogenic assay; format: cell-based, human; settings: A2780DXL cells at maximally tolerated dose (405 nM)
Description: as §3, §2

[8] = breast cancer patients following docetaxel infusion; cited from earlier work
MCF-7TXT cells [9] = assay: sTNFα in cell culture medium by ELISA; format: cell-based, human; settings: for sTNFα levels: 50 nM docetaxel
Description: as §1

[10] = tested on: NF-κB p65 and p50 subunits; assay: NF-κB activity in nuclear extracts (TransAM NF-κB Family ELISA); format: cell-based, human; settings: MCF-7CC and MCF-7TXT cells, 50 nM docetaxel 24 hours; except selection doses >15 nM (dose 11 and 12)
Description: MCF-7CC and MCF-7TXT cells were cultured in the presence or absence of 50 nM docetaxel for 24 hours. The activity of the NF-κB p65 and p50 subunits in 10 μg of nuclear extracts was assessed as outlined in the TransAM™ NF-κB Family ELISA kit (Active Motif™, Carlsbad, Calif.). Readings at 450 nm were normalized to the sum of all readings on the plate in order to compare across triplicate experiments.

MCF-7TAX-1 cells [11] = settings: cited from earlier work
MCF-7TXT cells [12] = settings: cited from earlier work

In the case of CO[C@@]12[C@H](COC(N)=O)C3=C(C(=O)C(C)=C(N)C3=O)N1C[C@@H]1N[C@@H]12 [mitomycin C], the “monocyte TNF levels” value (monocyte TNF levels) is listed as “no effect”.

In the case of CC[C@]1(O)C[C@@H]2CN(CCc3c([nH]c4ccccc34)[C@@](C(=O)OC)(c3cc4c(cc3OC)N(C)[C@H]3[C@@](O)(C(=O)OC)[C@H](OC(C)=O)[C@]5(CC)C=CCN6CC[C@]43[C@@H]65)C2)C1 [vinblastine], the “TNF alpha production / levels” value [1] is given as “increased TNF alpha production”.

In the case of COc1cccc2c1C(=O)c1c(O)c3c(c(O)c1C2=O)C[C@@](O)(C(=O)CO)C[C@@H]3O[C@H]1C[C@H](N)[C@H](O)[C@H](C)O1 [doxorubicin], the TNFα expression (A2780 cells; A2780 ovarian tumour cells, FIG. 1E) is given as “induces TNFα expression”, the TNFα expression (MCF-7CC cells [2]; MCF-7 breast tumour cells, FIG. 1D) is given as “induces TNFα expression” and the “monocyte TNF levels” value (monocyte TNF levels) is given as “no effect”. For the same compound, the “TNF alpha production / levels” value [1] was “increased TNF alpha production”.

In the case of N.N.[Cl][Pt][Cl] [cisplatin], the “TNF alpha production / levels” value [1] is listed as “increased TNF alpha production”.

For O=c1[nH]cc(F)c(=O)[nH]1 [5FU], the “monocyte TNF levels” value (monocyte TNF levels) is given as “no effect”.

In the case of CC[C@@]1(O)C(=O)OCc2c1cc1n(c2=O)Cc2cc3c(CN(C)C)c(O)ccc3nc2-1 [Topotecan], the “TNF alpha production / levels” value [1] is given as “no effect on TNF alpha levels”.

For TNFα, the NF-κB activity (C2C12 myotubes) is given as “induced NF-κB activity”, the colony formation (MCF-7CC cells [3]; TNFα 50 or 100 ng/mL) is given as “very strongly reduced” and the colony formation (MCF-7TAX-1 cells [4]; TNFα 50 or 100 ng/ml, relative to MCF-7TXT10) is given as “strong reductions in colony formation”. The “reduction of colony formation” value (MCF-7TXT cells [5]; MCF-7TXT8 cells, TNFα 10 ng/ml) was 66.6±1.7%, the “colony formation in absence or presence of TNFα” value (MCF-7TXT cells [5]; MCF-7TXT10 cells, TNFα 10 ng/mL) was “significant resistance to TNFα” and the “reductions in colony formation” value (MCF-7TXT cells [5]; MCF-7TXT10 cells, TNFα 50 ng/mL or 100 ng/mL, compared with MCF-7CC) was “much smaller”. For the same compound, the colony formation (MCF-7TXT cells [5]; MCF-7TXT12 cells, TNFα 10 ng/mL) was “increased colony formation”.

In the case of CC(=O)O[C@@]12CO[C@@H]1C[C@H](O)[C@@]1(C)C(=O)[C@H](O)C3=C(C)[C@@H](OC(=O)[C@H](O)[C@@H](NC(=O)OC(C)(C)C)c4ccccc4)C[C@@](O)([C@@H](OC(=O)c4ccccc4)[C@H]21)C3(C)C [docetaxel], the “serum levels of proinflammatory cytokines, including TNFα” value [6] is listed as “increased”, the “sTNFα levels versus MCF-7CC” value (MCF-7TAX-1 cells [7]) is listed as “No differences” and the TNFα expression (murine macrophages; same study) is listed as “no effect”. The resistance to docetaxel (A2780DXL cells) was about 4000 fold, the docetaxel sensitivity (MCF-7TXT cells [5]; MCF-7TXT8 cells (selected to 1.1 nM docetaxel) versus MCF-7CC) was “did not affect docetaxel sensitivity” and the “resistance to docetaxel (IC50 ratio to MCF-7CC)” value (MCF-7TXT cells [5]; MCF-7TXT9 cells (selected to 3.33 nM docetaxel)) was 11.4 fold. It also gave a docetaxel resistance factor (MCF-7TXT cells [5]; MCF-7TXT10 cells (selected to 5 nM docetaxel)) of 16.6, a docetaxel resistance factor (MCF-7TXT cells [5]; MCF-7TXT11 cells (selected to 15 nM docetaxel)) of 32.8 and a docetaxel resistance factor (MCF-7TXT cells [5]; MCF-7TXT12 cells (selected to 45 nM docetaxel)) of 184. For the same compound, the “plasma levels of docetaxel” value [8] was 10 to 75 nM, the sTNFα levels secreted (A2780 cells; A2780CC cells, 0.1 to 1 nM docetaxel, versus untreated) was “not significantly changed” and the “TNFα produced in response to docetaxel” value (A2780 cells; A2780 cells, compared with MCF-7CC cells, 48 hours) was “even greater amounts”. For the same compound, the “TNFα production and sTNFα release” value (A2780 cells; ovarian tumor cells, docetaxel 3 to 45 nM) was “can stimulate TNFα production and sTNFα release”, the sTNFα secretion (MCF-7TXT cells [9]; MCF-7TXT8 cells, 50 nM docetaxel versus untreated) was “no significant difference” and the “further increase of sTNFα production” value (MCF-7TXT cells [9]; MCF-7TXT9 cells, 50 nM docetaxel versus untreated) was 1.62 fold. For the same compound, the “further increase of sTNFα production” value (MCF-7TXT cells [9]; MCF-7TXT10 cells, 50 nM docetaxel versus untreated) was 1.27 fold, the sTNFα levels (MCF-7TXT cells [9]; MCF-7TXT11 cells) was “returned to basal levels” and the sTNFα levels (MCF-7TXT cells [9]; MCF-7TXT12 cells) was “returned to basal levels”. The “sTNFα levels in media” value (MCF-7CC cells [2]; MCF-7CC cells, 3 nM docetaxel, 48 hours) was “significantly elevated”, the sTNFα secretion (MCF-7CC cells [2]; MCF-7CC cells, 50 nM docetaxel versus untreated) was “no significant difference” and the sTNFα levels secreted (MCF-7CC cells [2]; MCF-7CC cells, 0.1 to 1 nM docetaxel, versus untreated) was “not significantly changed”. The “TNFα production and sTNFα release” value (MCF-7CC cells [2]; breast tumor cells, docetaxel 3 to 45 nM) was “can stimulate TNFα production and sTNFα release”, the “p65 and p50 subunit binding to the NF-κB sequence” value [10] was “even higher levels” and the “cross resistance to docetaxel” value (MCF-7TAX-1 cells [11]) was 46 fold.

In the case of C[C@@H]1C[C@@H]([C@H](O)CC2CC(=O)NC(=O)C2)C(=O)[C@@H](C)C1 [cycloheximide], the “effect on TNFα cytotoxicity” value (MCF-7CC cells [3]; cycloheximide 5 μg/mL with 10 ng/mL TNFα, 24 hours) was “only a small additional effect” and the “effect on TNFα cytotoxicity” value (MCF-7TXT cells [5]; MCF-7TXT10 cells, cycloheximide 5 μg/mL with 10 ng/mL TNFα, 24 hours) was “restored TNFα's ability to be cytotoxic”.

In the case of CC(=O)O[C@H]1C(=O)[C@@]2(C)[C@H]([C@H](OC(=O)c3ccccc3)[C@]3(O)C[C@H](OC(=O)[C@H](O)[C@@H](NC(=O)c4ccccc4)c4ccccc4)C(C)=C1C3(C)C)[C@]1(OC(C)=O)CO[C@@H]1C[C@@H]2O [paclitaxel], the sTNFα release (murine macrophages; levels unachievable in patients) is listed as “increase sTNFα release”, the TNFα production (C2C12 myotubes; 4 hours following treatment, paclitaxel 10 nM to 10 μM) is listed as “did not induce increased TNFα production” and the NF-κB activity (C2C12 myotubes) is listed as “induced NF-κB activity”. For the same compound, the paclitaxel resistance factor (MCF-7TAX-1 cells [4]; maximally tolerated dose of paclitaxel) was 42, the “cross-resistance to paclitaxel, resistance factor” value (MCF-7TXT cells [12]; selection dose 11) was 148 and the “cross-resistance to paclitaxel, resistance factor” value (MCF-7TXT cells [12]; selection dose 12) was 251. The sTNFα production (A2780 cells; A2780 cells, paclitaxel at concentrations 15 nM, compared with docetaxel) was “even higher levels” and the sTNFα release (A2780 cells; ovarian tumor cells, paclitaxel 5 and 15 nM) was “dramatically increase sTNFα release”.
